The numbers were not newly measured in US6533967B1, “Initiating system for solid polyester granule manufacture” (Orica Australia Pty Ltd, priority 1999, dated 2003), which cites them from elsewhere.

This data set concerns rat. Particulars: inhalation of vapours, 4 h.

Turning to `CCN(CC)c1ccccc1` [N,N-diethylaniline], the LC50 rat is 1920 mg/m^3/4 h.
